Measured values taken from patent US10604554B2, “Double-acylated GLP-1 derivatives” (Novo Nordisk A/S, priority 2012, dated 2020).

Legend:
human GLP-1 receptor [1] = molecular target: T1, human GLP-1 receptor (Homo sapiens, UniProt P43220); test: In vitro potency (CRE luciferase; whole cells); assay type: cell-based; design: EC50/pM (ratio 1% HSA/0% HSA): unit not given here; conditions: for EC50/pM (ratio 1% HSA/0% HSA): ratio of EC50 at 1% HSA to EC50 at 0% HSA
T1 construct: expressed in transfected cells; host or cells: BHK cells, clone FCW467-12A/KZ10-1 (parent line BHKTS13), further transfected with CRE luciferase
Procedure, shortened: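 Stably transfected BHK cells carrying human GLP-1R and a CRE–firefly luciferase reporter, 5×10^3 cells/well in assay medium, run with 0% or 1% HSA in assay buffer.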

[2] = Pharmacokinetic (PK) study in rat; conditions: male, Sprague Dawley, in vivo, iv, 6 nmol/kg
Description: The purpose of this Example is to investigate half-life in vivo in rat.
In vivo pharmacokinetic studies in rats were performed with the GLP-1 derivatives of a number of the Example compounds, as described in the following.
Male Sprague Dawley rats of same age with a body weight of approximately 400 g were obtained from Taconic (Denmark) and assigned to the treatments by simple randomisation on body weight, approximately 4 rats per group.
The GLP-1 derivatives (approximately 6 nmol/ml) were dissolved in 50 mM sodium phosphate, 145 mM sodium chloride, 0.05% tween 80, pH 7.4. Intravenous injections (1.0 ml/kg) of the compounds were given with a syringe in the tail vein of conscious rats. Blood was sampled from vena sublingualis for 5 days post dosing. Blood samples (200 μl) were collected in EDTA buffer (8 mM) and then centrifuged at 4° C. and 10000 G for 5 minutes. Plasma samples were kept at −20° C. until analyzed for plasma concentration of the respective GLP-1 compound.
The donor beads were coated with streptavidin, while acceptor beads were conjugated with a monoclonal antibody recognising a mid-/C-terminal epitope of the peptide. Another monoclonal antibody, specific for the N-terminus, was biotinylated. The three reactants were combined with the analyte and formed a two-sited immuno-complex. Illumination of the complex released singlet oxygen atoms from the donor beads, which were channeled into the acceptor beads and triggered chemiluminescence which was measured in an Envision plate reader. The amount of light was proportional to the concentration of the compound.
Plasma concentration-time profiles were analyzed using Phoenix WinNonLin ver. 6.2, Pharsight Inc., Mountain View, Calif., USA), and the half-life (T1/2) calculated using individual plasma concentration-time profiles from each animal.

[3] = Pharmacokinetic (PK) study in minipig; conditions: male, Göttingen, in vivo, iv
human GLP-1 receptor [4] = molecular target: T1, human GLP-1 receptor; test: GLP-1 receptor binding (SPA, displacement of 125I-GLP-1); conditions: Receptor binding affinity IC50 (high HSA), 2.0% HSA (high albumin)
Procedure, shortened: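 Membranes from a stably transfected hamster cell line, 5-10 ug protein/sample, with WGA SPA beads and [125I]-GLP-1(7-36)NH2 at 0.06 nM final. Incubated 120 min at 30 °C with shaking, then counted.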

[5] = test system: Landrace Yorkshire Duroc (LYD) pigs; test: Pharmacodynamic (PD) study in pigs, food intake; assay type: in vivo, pig; conditions: single s.c. dose 3.0 nmol/kg
Description: The purpose of this experiment was to investigate the effect of a couple of Example compounds on food intake in pigs. This was done in a pharmacodynamic (PD) study as described below, in which food intake was measured from 1 to 4 days after administration of a single dose of the GLP-1 derivative, as compared to a vehicle-treated control group.
Female Landrace Yorkshire Duroc (LYD) pigs, approximately 3 months of age, weighing approximately 30-35 kg were used (n=3-4 per group). The animals were housed in a group for approximately 1 week during acclimatisation to the animal facilities. During the experimental period the animals were placed in individual pens at least 2 days before dosing and during the entire experiment for measurement of individual food intake. The animals were fed ad libitum with pig fodder (Svinefoder Danish Top) at all times both during the acclimatisation and the experimental period. Food intake was monitored on line by logging the weight of fodder every 15 minutes. The system used was Mpigwin (Ellegaard Systems, Faaborg, Denmark).
The phosphate buffer serves as vehicle. Animals are dosed with a single subcutaneous dose of the GLP-1 derivative or vehicle (dose volume 0.025 ml/kg) on the morning of day 1, and food intake is measured for 1 day after dosing. On the last day of each study, 1-4 days after dosing, a blood sample for measurement of plasma exposure of the GLP-1 derivative is taken from the heart in anaesthetised animals. The animals are thereafter euthanised with an intra-cardial overdose of pentobarbitone.
Food intake is calculated as mean±SEM food intake in 24 h intervals (0-24 h, 24-48 h, and 48-72 h). In Table 6 below the food intake is indicated as percentage of the food intake of the vehicle group in the same time interval (dosage 3.0 nmol/kg).
Statistical comparisons of the food intake in the 24 h intervals in the vehicle vs. GLP-1 derivative group are done using two-way-ANOVA repeated measures, followed by Bonferroni post-test.

T1 sequence (P43220 24-463): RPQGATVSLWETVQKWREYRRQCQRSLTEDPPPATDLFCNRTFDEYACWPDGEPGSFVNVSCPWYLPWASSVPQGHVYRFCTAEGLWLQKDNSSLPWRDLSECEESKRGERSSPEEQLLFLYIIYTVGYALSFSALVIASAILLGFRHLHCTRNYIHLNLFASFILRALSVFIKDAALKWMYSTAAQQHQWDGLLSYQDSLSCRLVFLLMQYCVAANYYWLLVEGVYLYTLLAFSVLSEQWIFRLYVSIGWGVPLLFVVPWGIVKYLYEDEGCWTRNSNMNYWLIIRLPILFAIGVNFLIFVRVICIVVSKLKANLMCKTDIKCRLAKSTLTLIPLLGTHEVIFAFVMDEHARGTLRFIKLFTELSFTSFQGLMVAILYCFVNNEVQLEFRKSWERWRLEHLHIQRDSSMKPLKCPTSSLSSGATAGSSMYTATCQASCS

| Compound | EC50/pM (ratio 1% HSA/0% HSA) (human GLP-1 receptor [1]) | half-life [2] [h] | half-life [3] [h] | EC50 (human GLP-1 receptor [1]; In vitro potency (CRE luciferase) EC50 (1% HSA), BHK cells, 1% HSA) [nM] | IC50 (human GLP-1 receptor [4]) [nM] | PD in pig, food intake (% of vehicle) for hours 0-24 ([5]; 0-24 h) | PD in pig, food intake (% of vehicle) for hours 24-48 ([5]; 24-48 h) |
| --- | --- | --- | --- | --- | --- | --- | --- |
| CC[C@H](C)[C@H](NC(=O)[C@H](Cc1ccccc1)NC(=O)[C@H](CCC(=O)O)NC(=O)[C@H](CCCCNC(=O)[C@@H](N)CCCCNC(=O)[C@@H](N)CCCCNC(=O)CC[C@H](NC(=O)CCCCCCCCCCCOc1ccc(C(=O)O)cc1)C(=O)O)NC(=O)[C@H](C)NC(=O)[C@H](C)NC(=O)[C@H](CCC(N)=O)NC(=O)CNC(=O)[C@H](CCC(=O)O)NC(=O)[C@H](CC(C)C)NC(=O)[C@H](Cc1ccc(O)cc1)NC(=O)[C@H](CO)NC(=O)[C@H](CO)NC(=O)[C@@H](NC(=O)[C@H](CC(=O)O)NC(=O)[C@H](CO)NC(=O)[C@@H](NC(=O)[C@H](Cc1ccccc1)NC(=O)[C@@H](NC(=O)CNC(=O)[C@H](CCC(=O)O)NC(=O)C(C)(C)NC(=O)[C@@H](N)Cc1c[nH]cn1)[C@@H](C)O)[C@@H](C)O)C(C)C)C(=O)N[C@@H](C)C(=O)N[C@@H](Cc1c[nH]c2ccccc12)C(=O)N[C@@H](CC(C)C)C(=O)N[C@H](C(=O)N[C@@H](CCC(N)=O)C(=O)NCC(=O)N[C@@H](CCCNC(=N)N)C(=O)N[C@@H](CCCCNC(=O)[C@@H](N)CCCCNC(=O)[C@@H](N)CCCCNC(=O)CC[C@H](NC(=O)CCCCCCCCCCCOc1ccc(C(=O)O)cc1)C(=O)O)C(=O)O)C(C)C [Example 9, N^ε26-[(2S)-2-amino-6-[[(2S)-2-amino-6-[[(4S)-4-carboxy-4-[12-(4-carboxyphenoxy)dodecanoylamino]butanoyl]amino]hexanoyl]amino]hexanoyl], N^ε37-[(2S)-2-amino-6-[[(2S)-2-amino-6-[[(4S)-4-carboxy-4-[12-(4-carboxyphenoxy)dodecanoylamino]butanoyl]amino]hexanoyl]amino]hexanoyl]-[Aib^8,Gln^34,Lys^37]-GLP-1-(7-37)-peptide] | 72 | 20 | 72 |  |  |  |  |
| CC[C@H](C)[C@H](NC(=O)[C@H](Cc1ccccc1)NC(=O)[C@H](CCC(=O)O)NC(=O)[C@H](CCCCNC(=O)[C@@H](N)CCCCNC(=O)[C@H](CO)NC(=O)CNC(=O)[C@H](CO)NC(=O)CC[C@H](NC(=O)CCCCCCCCCCCOc1ccc(C(=O)O)cc1)C(=O)O)NC(=O)[C@H](C)NC(=O)[C@H](C)NC(=O)[C@H](CCC(N)=O)NC(=O)CNC(=O)[C@H](CCC(=O)O)NC(=O)[C@H](CC(C)C)NC(=O)[C@H](Cc1ccc(O)cc1)NC(=O)[C@H](CO)NC(=O)[C@H](CO)NC(=O)[C@@H](NC(=O)[C@H](CC(=O)O)NC(=O)[C@H](CO)NC(=O)[C@@H](NC(=O)[C@H](Cc1ccccc1)NC(=O)[C@@H](NC(=O)CNC(=O)[C@H](CCC(=O)O)NC(=O)C(C)(C)NC(=O)[C@@H](N)Cc1c[nH]cn1)[C@@H](C)O)[C@@H](C)O)C(C)C)C(=O)N[C@@H](C)C(=O)N[C@@H](Cc1c[nH]c2ccccc12)C(=O)N[C@@H](CC(C)C)C(=O)N[C@H](C(=O)N[C@@H](CCCNC(=N)N)C(=O)NCC(=O)N[C@@H](CCCNC(=N)N)C(=O)N[C@@H](CCCCNC(=O)[C@@H](N)CCCCNC(=O)[C@H](CO)NC(=O)CNC(=O)[C@H](CO)NC(=O)CC[C@H](NC(=O)CCCCCCCCCCCOc1ccc(C(=O)O)cc1)C(=O)O)C(=O)O)C(C)C [Example 24] | 37 |  | 123 | 0.126 | 136 | 73 % of vehicle | 73 % of vehicle |
